Results on one compound are retold here after US20090155367A1, “Occlusion of Fallopian Tubes” (priority 2005, published 2009).

For experiment [1], the system named is beef muscle tissue (fillet mignon). Nature of the experiment: Tissue necrosis with AgNO3 bearing beads placed on beef muscle tissue. Also on record: key: +: slight visible pitting of the tissue surface; ++: moderate pitting of tissue surface with slight blackening of the tissue; +++: significant pitting with moderate blackening of the tissue; ++++: severe pitting with complete blackening of the tissue; +++++: severe pitting with complete blackening of the tissue, spreading beyond the point of contact; −−−: no observed necrosis. The following applies: tissue under bead on beef muscle surface. An excerpt: The degree of necrosis was rated as follows: slight visible pitting of the tissue surface (+); moderate pitting of tissue surface with slight blackening of the tissue (++); significant pitting with moderate blackening of the tissue (+++); severe pitting with complete blackening of the tissue (++++); severe pitting with complete blackening of the tissue, spreading beyond the point of contact (+++++); and no observed necrosis (−−−)

A further experiment concerns Fallopian tubes. The conditions noted are these: even when massive tubal necrosis was achieved; cited from earlier work.

On to `O=[N+]([O-])[O-].[Ag+]` [AgNO3 Crystal, silver nitrate], for which the “Tissue Necrosis (degree of necrosis)” value is “+++” in experiment [1] (Time 5 minutes), “++++” in experiment [1] (Time 10 minutes), “+++++” in experiment [1] (Time 15 minutes) and “+++++” in experiment [1] (Time 20 minutes). Moreover, in the experiment with Fallopian tubes, the “Fallopian tube closure after application” value was “a significant proportion of Fallopian tubes remained open”.
